PubChem BioAssay (NCI)
Several values for one entry are separate records, joined by “and”; a condition that tells them apart may be missing. Equal entries are not always repeated.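 Cultured in 96-well plates, cells were exposed to test compound for 48 hours across five concentrations. GI50 marks 50% less growth. TGI denotes the concentration required for complete inhibition of growth.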

Experiments:
Assay in all cases: NCI tumour cell line growth inhibition, 48 h; in the data active = GI50 below about 0.43 µM; inactive = the rest
TK-10 renal = system: TK-10 renal
MCF7 breast = system: MCF7 breast
MALME-3M melanoma = system: MALME-3M melanoma
ACHN renal = system: ACHN renal
SW-620 colon = system: SW-620 colon
UO-31 renal = system: UO-31 renal
RPMI-8226 leukemia = system: RPMI-8226 leukemia
OVCAR-8 ovarian = system: OVCAR-8 ovarian
LOX IMVI melanoma = system: LOX IMVI melanoma
SNB-19 CNS = system: SNB-19 CNS
HOP-62 NSCLC = system: HOP-62 NSCLC
NCI-H23 lung = system: NCI-H23 lung
HL-60(TB) leukemia = system: HL-60(TB) leukemia
EKVX NSCLC = system: EKVX NSCLC
SR leukemia = system: SR leukemia
OVCAR-3 ovarian = system: OVCAR-3 ovarian
SK-MEL-5 melanoma = system: SK-MEL-5 melanoma
U251 CNS = system: U251 CNS
SNB-75 CNS = system: SNB-75 CNS
SK-MEL-2 melanoma = system: SK-MEL-2 melanoma
OVCAR-4 ovarian = system: OVCAR-4 ovarian
CCRF-CEM leukemia = system: CCRF-CEM leukemia
MOLT-4 leukemia = system: MOLT-4 leukemia
HS 578T breast = system: HS 578T breast
MDA-N = system: MDA-N
SK-MEL-28 melanoma = system: SK-MEL-28 melanoma
T-47D breast = system: T-47D breast
OVCAR-5 ovarian = system: OVCAR-5 ovarian
IGROV1 ovarian = system: IGROV1 ovarian
SF-539 CNS = system: SF-539 CNS
HT29 colon = system: HT29 colon
DU-145 prostate = system: DU-145 prostate
MDA-MB-231 breast = system: MDA-MB-231 breast
RXF 393 renal = system: RXF 393 renal
786-0 renal = system: 786-0 renal
UACC-257 melanoma = system: UACC-257 melanoma
A498 renal = system: A498 renal
NCI-H226 lung = system: NCI-H226 lung
NCI-H460 lung = system: NCI-H460 lung
SF-295 CNS = system: SF-295 CNS
HCT-116 colon = system: HCT-116 colon
A549 NSCLC = system: A549 NSCLC
KM12 colon = system: KM12 colon
CAKI-1 renal = system: CAKI-1 renal
K-562 leukemia = system: K-562 leukemia
HCC-2998 colon = system: HCC-2998 colon
UACC-62 melanoma = system: UACC-62 melanoma
BT-549 breast = system: BT-549 breast
M14 melanoma = system: M14 melanoma
HCT-15 colon = system: HCT-15 colon
NCI-H522 lung = system: NCI-H522 lung
PC-3 prostate = system: PC-3 prostate
HOP-92 NSCLC = system: HOP-92 NSCLC
SN12C renal = system: SN12C renal
SF-268 CNS = system: SF-268 CNS

N#Cc1c(-c2ccccc2)c(C#N)c(=S)n(C2OC(CO)C(O)C(O)C2O)c1N (stereo not drawn)
> 100 µM: TGI (TK-10 renal) | TGI (MCF7 breast) | TGI (MALME-3M melanoma) | TGI (ACHN renal) | TGI (SW-620 colon) | TGI (UO-31 renal) | TGI (RPMI-8226 leukemia) | TGI (OVCAR-8 ovarian) | TGI (LOX IMVI melanoma) | TGI (SNB-19 CNS) | TGI (HOP-62 NSCLC) | TGI (NCI-H23 lung) | TGI (HL-60(TB) leukemia) | TGI (EKVX NSCLC) | TGI (SR leukemia) | TGI (OVCAR-3 ovarian) | TGI (SK-MEL-5 melanoma) | TGI (U251 CNS) | TGI (SNB-75 CNS) | TGI (SK-MEL-2 melanoma) | TGI (OVCAR-4 ovarian) | TGI (CCRF-CEM leukemia) | TGI (MOLT-4 leukemia) | TGI (HS 578T breast) | TGI (MDA-N) | TGI (SK-MEL-28 melanoma) | TGI (T-47D breast) | TGI (OVCAR-5 ovarian) | TGI (IGROV1 ovarian) | TGI (SF-539 CNS) | TGI (HT29 colon) | TGI (DU-145 prostate) | TGI (MDA-MB-231 breast) | TGI (RXF 393 renal) | TGI (786-0 renal) | TGI (UACC-257 melanoma) | TGI (A498 renal) | TGI (NCI-H226 lung) | TGI (NCI-H460 lung) | TGI (SF-295 CNS) | TGI (HCT-116 colon) | TGI (A549 NSCLC) | TGI (KM12 colon) | TGI (CAKI-1 renal) | TGI (K-562 leukemia) | TGI (HCC-2998 colon) | TGI (UACC-62 melanoma) | TGI (BT-549 breast) | TGI (M14 melanoma) | TGI (HCT-15 colon) | TGI (NCI-H522 lung) | TGI (PC-3 prostate) | TGI (HOP-92 NSCLC) | TGI (SN12C renal) | TGI (SF-268 CNS)
inactive: GI50 (TK-10 renal) 40.5 µM and > 100 µM | GI50 (MCF7 breast) 91.1 µM and 41.6 µM | GI50 (UO-31 renal) > 100 µM and 40.3 µM | GI50 (HOP-62 NSCLC) > 100 µM and 36 µM | GI50 (EKVX NSCLC) 44.4 µM and > 100 µM | GI50 (MOLT-4 leukemia) 39.3 µM and > 100 µM | GI50 (IGROV1 ovarian) > 100 µM and 45.5 µM | GI50 (HOP-92 NSCLC) 42 µM and 21 µM
